These results are taken from patent US8975259B2, “Compositions and methods for inhibiting G protein signaling” (University of Rochester, priority 2007, dated 2015).

In general, ED50 refers to the dose that gives a 50% effect, or the effect in half of the subjects. For orientation: IC50 means the midpoint of a concentration-inhibition curve. High values mean weaker potency, low ones greater potency.

For assay [1], the system named is carrageenan-induced paw edema in mice. Kind of assay: Carrageenan-induced paw edema and neutrophil abundance. Background: The carrageenan paw model is a standard test of acute inflammation.
The next assay deals with T1, Gαi1-Gβ1γ2 interaction (UniProt P54311+P63212).
T1 construct: made in house; host or cells: b-βγ: Sf9 insect cells
Description: Flow cytometry competition for FITC-Gαi1 binding to immobilized b-Gβ1γ2. The method, then: (2003) supra; Sarvazyan, et al. (1998) J. Biol. […] Fluorescein-labeled Ga^ (Fan) was prepared in accordance with standard methods (Sarvazyan, et al. (1998) supra). Assays were used to determine peptide effects on Gα-Gβγ interactions included competition and dissociation assays (Ghosh, et al. (2003) supra). […] The bead-associated fluorescence was then recorded in a BD Biosciences […] flow cytometer. Data was corrected for background fluorescence and fit with a sigmoid dose response curve using Graph Pad Prism 4. To measure dissociation of Fan from b-Gβaγ2, 100 pM of Fa^ was incubated with 50 pM immobilized b-Gβ1γ2 at room temperature for 15-20 minutes.
(In flow cytometry, cells or beads pass a laser one at a time.)

The target of another assay is T2, PLCβ2-bGβ1γ2 interaction (UniProt P54311+P63212).
T2 construct: made in house; host or cells: bGβ1γ2: Sf9 insect cells
Kind of assay: PLCβ2 binding to biotinylated Gβ1γ2 (avidin agarose precipitation). Particulars: M119 10 μM, M201 1 μM; result in words. The method, then: Purified PLCβ2 (0.25 ng) was assayed in the presence (▴) or absence (▪) of 100 nM purified Gβ1γ2. […] Assays contained 10 ng of purified p101/p110 PI3Kγ heterodimer with or without 100 nM purified Gβ1γ2. Left panel: (▴) 100 nM Gβ1γ2 or (▪) no βγ. […] M119 or M201 and 25 nM purified GRK2 were added simultaneously to 250 nM biotinylated Gβ1γ2 (bGβ1γ2) immobilized on streptavidin agarose. GRK2 was detected with antibody to GRK2. Data are representative (mean ±SEM, except D) repeated at least three times each. […] 30 nM bGβ1γ2 was incubated with either 30 nM PLCβ2 or PLCβ3 in the presence or absence of M119 or M201 for 16 h at 4° C. before precipitation with avidin agarose and detection with PLCβ2,or Gβ antibodies. […] Same as 4E with PLCβ3.

Assay [2] concerns ERK1 and ERK2 activation in differentiated HL60 cells. Kind of assay: fMLP-induced ERK1 and ERK2 activation in differentiated HL60 cells. The class given is cell-based, human. Particulars: 10 μM compound, 1 μM fMLP, result in words. The method, then: Cells were pretreated with DMSO or 10 μM compounds for 5 min prior to stimulation with 250 nM fMLP. […] Normalized peak Ca^2+ responses were pooled from three independent experiments each (mean±SEM). Cells were pretreated with DMSO (▪) or compounds (▴) for 5 min prior to stimulation. FIG. 5C is the same as A except 10 μM M201 was tested. […] Differentiated HL60 cells were treated with 10 μM compound prior to stimulation with 250 nM fMLP. Translocation of endogenous GRK2 was determined by Western blotting with a GRK2 antibody and quantitative chemiluminescence. Data are mean±SEM from 5 experiments, * P<0.05, **P<0.01 ANOVA. […] Differentiated HL60 cells stably over-expressing GFP-PHAkt were treated with 10 μM compound prior to stimulation with 100 nM fMLP. Translocation of GFP-PHAkt to the membrane was determined by Western blotting with an anti-GFP antibody and quantitative chemiluminescence. Data are mean±SEM from 4 experiments. *** P<0.001 ANOVA. […] Differentiated HL60 cells were pretreated with 10 μM of compound prior to stimulation with 1 μM fMLP for 5 min. Levels of phosphorylated and total ERK were determined by Western blotting.

Assay [3] relates to GRK2 membrane recruitment in adult mouse cardiomyocytes. Description: β-AR-mediated GRK2 membrane recruitment in isolated adult mouse cardiomyocytes. Particulars: result in words. The class given is cell-based. The method, then:
Thus, it was tested whether M119 could block GRK2 recruitment to membrane-bound Gβγ subunits upon agonist stimulation of β-AR in cardiomyocytes, similar to what had been observed in vitro with the peptide inhibitors described above. Indeed M119 reduced β-AR-mediated recruitment of GRK2 to membranes of isolated adult mouse cardiomyocytes, with a mild reduction of membrane associated GRK2 at baseline.

Assay [4] has as its system cAMP generation in adult mouse cardiomyocytes. Description: cAMP generation in isolated adult mouse cardiomyocytes. The class given is cell-based. Particulars: 10 μM M119 5 min pre-treatment, 100 nM isoproterenol 15 min; result in words. The method, then: Isolated cardiomyocytes were treated with vehicle (V) or 100 nM isoproterenol (I) for 15 minutes in the presence or absence of a 5 minute pre-treatment with 10 μM M119 (M). Forskolin treatment, which directly activates adenylyl cyclase, was used as a control.

Assay [5] concerns isoproterenol-induced heart failure in mice. Kind of assay: Isoproterenol mini-osmotic pump acute model of heart failure. It is filed as in vivo, mouse. To be noted: result in words. The method, then:
Conscious echocardiography was performed on animals prior to sacrifice. % FS is a measure of cardiac contractility derived from end-diastolic and end-systolic diameters. […] Heart weight to body weight ratio (HW:BW) was assessed upon sacrifice of the animal. (n=7-8 per condition)
Immunoblot for GRK2 of equal amounts of total protein isolated from hearts of adult C57/B16 male mice following 1 week of either vehicle or Iso (30 mg/kg/day) delivered by miniosmotic pumps (Veh, . . . or Iso, . . . , respectively) and concurrent daily vehicle or M119 (100 mg/kg) daily injections ( . . . , Veh, or . . . , Cmpd, respectively).
Based on the positive cardiomyocyte data, the cardiac effects of M119 were tested in vivo. The NCI compound database and chemical library was originally assembled to investigate these compounds utilizing both a yeast high-throughput screening assay as well as in vivo compound delivery to mice for 1-2 weeks. […] Wild type mice were implanted with mini-osmotic pumps filled with either vehicle or the non-selective β-AR agonist isoproterenol. These pumps release a constant fluid volume, and 30 mg/kg/day of isoproterenol (Iso) has been used to attain pathologic cardiac hypertrophy and dysfunction in one week Immediately following mini-osmotic pump implantation of vehicle or Iso (30 mg/kg/day), mice from each group were injected intraperitoneal (IP) once daily with equal volumes of either vehicle or a moderate dose of M119 (100 mg/kg) for seven days. […] The Iso pumped animals indeed suffered a decrease of cardiac function coupled with pathologic hypertrophy.

For the compound `O=C(O)c1ccccc1-c1c2ccc(=O)c(O)c-2oc2c(O)c(O)ccc12` (racemic) [Gallein], the “reduction of number of neutrophils in the edematous fluid” value in assay [1] (100 mg/kg i.p., 2 h after carrageenan) is reported as “approximately half”. Moreover, the ED50 in assay [1] (Mus musculus, ip, read-out: ED50 for inhibiting paw edema) is approximately 20 mg/kg. Moreover, the “effect on carrageenan-induced paw edema” value in assay [1] (i.p. 1 h before carrageenan, gallein 100 mg/kg, indomethacin 2.5 mg/kg, result in words) is given as “reduced paw edema to levels comparable with that of indomethacin”. Further, in assay [1] (i.p. pretreatment, 2 h after carrageenan), the “reduction of exudate volume” value is “approximately 75%”. Moreover, in assay [1] (oral gavage 30 mg/kg 1 h before carrageenan, 3 h after carrageenan), the “reduction of paw swelling” value is on record as 40%. In assay [1] (result in words), the “effect on paw thickness in the absence of carrageenan” value is “no effect”.

The compound `O=C(O)C1CCCCC1c1c2ccc(=O)c(O)c-2oc2c(O)c(O)ccc12` (centres unmarked) [Compound M119, cyclohexanecarboxylic acid, 2-(4,5,6-trihydroxy-3-oxo-3H-xanthen-9-yl)-(9cl)] gave a half-maximal inhibitory concentration (IC50) at Gαi1-Gβ1γ2 interaction of 400 nM. Also, the “interactions of Gα subunit with Gβγ subunits” value on Gαi1-Gβ1γ2 interaction (result in words) is “blocked”. Besides, the “effect on direct binding of bGβ1γ2 to PLCβ2” value on PLCβ2-bGβ1γ2 interaction was “inhibited”. Also, the entries for the “effect on fMLP-induced activation of ERK1 and ERK2” value in assay [2] and in assay [2] (listed as NSC119910) were “did not block” and “without interfering”, respectively. In addition, the “effect on β-AR-mediated recruitment of GRK2 to membranes” value in assay [3] is “reduced”. Besides, the “effect on cAMP generation at baseline and with isoproterenol” value in assay [4] is given as “enhanced”. For the same compound, the “effect on interstitial cardiac fibrosis” value in assay [5] (Iso 30 mg/kg/day pump, M119 100 mg/kg IP daily, seven days) is given as “reduction in interstitial cardiac fibrosis”. For the same compound, the “effect on cardiac function and morphology in Iso pumped animals” value in assay [5] (Iso 30 mg/kg/day pump, M119 100 mg/kg IP once daily, seven days) was “near normalization of cardiac function and morphology”. In assay [5] (M119 100 mg/kg IP daily), the “effect on GRK2 expression in the Iso HF model” value is on record as “nearly normalized”. Further, the “effect of compound alone on cardiac function or morphology” value in assay [5] (vehicle pump, M119 100 mg/kg IP daily) is given as “no effect”.
